In the supplement of paper PMC8253809:

Columns and labels:
DIPGX37 [1] = H3.3 K27M diffuse intrinsic pontine glioma line; assay: EC50 (inflection of fitted growth-inhibition curve) (log10 M)
In short: (§1)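 Patient-derived pHGG/DIPG cell lines and astrocyte controls were grown on 1% Geltrex-coated 384-well plates and exposed by pin tool to a 10-point threefold dilution series (mean top concentration 35 μM), in triplicate. Exposure was 7 days (iAstro 3 days) at 37 °C, 5% CO2. CellTiter-Glo luminescence was log2-transformed, normalised per plate to % activity between negative (solvent) and positive control wells, and pooled. EC50 and maximal response (yFin) come from the lowest-AICc three- or four-parameter log-logistic fit.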

HGGX39 [2] = paediatric high-grade glioma line; assay: as above
In short: as §1

HGGX6 [3] = H3.3 G34R paediatric high-grade glioma line; assay: as above
In short: as §1

DIPGX37 [4] = assay: maximal growth inhibition (yFin) relative to DMSO / staurosporine; higher = more efficacious
In short: as §1

HGGX39 [5] = assay: as above
In short: as §1

HGGX6 [6] = assay: as above
In short: as §1

DIPGX29 [7] = H3.3 K27M diffuse intrinsic pontine glioma line; assay: area under dose-response curve of % growth inhibition (log2 RLU vs DMSO / staurosporine), 1e-11 to 1e-4 M (% x log10 M); higher = more growth inhibition
In short: (§2)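 On 1% Geltrex-coated 384-well plates, patient-derived pHGG/DIPG cell lines and astrocytes were treated in triplicate across 10 threefold dilutions (mean top concentration 35 μM) for 7 days, with iAstro treated for 3 days, at 37 °C, 5% CO2. Log2-transformed CellTiter-Glo luminescence was normalised per plate to % activity between solvent and positive controls. Area under the curve was obtained by the trapezoid rule from a log-logistic fit, or from a smoothing spline when that fit failed.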

DIPGX37 [8] = assay: as above
In short: as §2

HGGX39 [9] = assay: as above
In short: as §2

HGGX6 [10] = assay: as above
In short: as §2

DIPGX29 [11] = assay: EC50 (inflection of fitted growth-inhibition curve) (log10 M)
In short: as §1

DIPGX29 [12] = assay: maximal growth inhibition (yFin) relative to DMSO / staurosporine; higher = more efficacious
In short: as §1

CCCCOc1ccc(OCCCN2CCOCC2)cc1 [PRAMOXINE]
EC50 (log10 M) (DIPGX37 [1]): -4.83
EC50 (log10 M) (HGGX39 [2]): -4.82
EC50 (log10 M) (HGGX6 [3]): -4.97
maximal growth inhibition (DIPGX37 [4]): 55.5%
maximal growth inhibition (HGGX39 [5]): 77%
maximal growth inhibition (HGGX6 [6]): 23.9%
area under dose-response curve (DIPGX29 [7]): 17.3
area under dose-response curve (DIPGX37 [8]): 46.2
area under dose-response curve (HGGX39 [9]): 70.5
area under dose-response curve (HGGX6 [10]): 23.2

O=C(/C=C\n1cnc(-c2cc(C(F)(F)F)cc(C(F)(F)F)c2)n1)NNc1cnccn1 [SELINEXOR]
EC50 (log10 M) (HGGX39 [2]): -6.06
EC50 (log10 M) (HGGX6 [3]): -5.23
maximal growth inhibition (HGGX39 [5]): 96.2%
maximal growth inhibition (HGGX6 [6]): 101%
area under dose-response curve (DIPGX29 [7]): 144
area under dose-response curve (DIPGX37 [8]): 169
area under dose-response curve (HGGX39 [9]): 195
area under dose-response curve (HGGX6 [10]): 205

CC(=O)N1c2ccc(-c3ccc(C(=O)O)cc3)cc2[C@H](Nc2ccc(Cl)cc2)C[C@@H]1C [I-BET726]
EC50 (log10 M) (DIPGX29 [11]): -5.48
EC50 (log10 M) (DIPGX37 [1]): -6.37
EC50 (log10 M) (HGGX39 [2]): -5.73
maximal growth inhibition (DIPGX29 [12]): 30%
maximal growth inhibition (DIPGX37 [4]): 37.1%
maximal growth inhibition (HGGX39 [5]): 37.7%
area under dose-response curve (DIPGX29 [7]): 43
area under dose-response curve (DIPGX37 [8]): 79.4
area under dose-response curve (HGGX39 [9]): 55.9
area under dose-response curve (HGGX6 [10]): 44.5

Nc1nccc2c1ncn2[C@@H]1C=C(CO)[C@@H](O)[C@H]1O [3-DEAZANEPLANOCIN]
EC50 (log10 M) (DIPGX29 [11]): -7.53
maximal growth inhibition (DIPGX29 [12]): 21.5%
area under dose-response curve (DIPGX29 [7]): 76
area under dose-response curve (DIPGX37 [8]): 16.8
area under dose-response curve (HGGX39 [9]): 33.5
area under dose-response curve (HGGX6 [10]): 36.5

Nc1nc2[nH]cnc2c(=S)[nH]1 [THIOGUANINE]
EC50 (log10 M) (DIPGX29 [11]): -5.83
EC50 (log10 M) (DIPGX37 [1]): -5.44
EC50 (log10 M) (HGGX39 [2]): -5.68
maximal growth inhibition (DIPGX29 [12]): 35.6%
maximal growth inhibition (DIPGX37 [4]): 60.4%
maximal growth inhibition (HGGX39 [5]): 22.1%
area under dose-response curve (DIPGX29 [7]): 59.5
area under dose-response curve (DIPGX37 [8]): 89.3
area under dose-response curve (HGGX39 [9]): 33.7
area under dose-response curve (HGGX6 [10]): 21.6

CC(C)(C)C(=O)OCOP(=O)(COCCn1cnc2c(N)ncnc21)OCOC(=O)C(C)(C)C [ADEFOVIR DIPIVOXIL]
EC50 (log10 M) (DIPGX37 [1]): -5.54
EC50 (log10 M) (HGGX39 [2]): -5.71
EC50 (log10 M) (HGGX6 [3]): -5.06
maximal growth inhibition (DIPGX37 [4]): 34.3%
maximal growth inhibition (HGGX39 [5]): 21.4%
maximal growth inhibition (HGGX6 [6]): 20.9%
area under dose-response curve (DIPGX29 [7]): 25.6
area under dose-response curve (DIPGX37 [8]): 53.7
area under dose-response curve (HGGX39 [9]): 36.5
area under dose-response curve (HGGX6 [10]): 22.2

CC(C)n1c(/C=C/C(O)CC(O)CC(=O)O)c(-c2ccc(F)cc2)c2ccccc21 (centres undefined) [FLUVASTATIN]
EC50 (log10 M) (HGGX39 [2]): -6.08
EC50 (log10 M) (HGGX6 [3]): -5.92
maximal growth inhibition (HGGX39 [5]): 23.9%
maximal growth inhibition (HGGX6 [6]): 26.8%
area under dose-response curve (DIPGX29 [7]): 25.5
area under dose-response curve (DIPGX37 [8]): 1.43
area under dose-response curve (HGGX39 [9]): 51.2
area under dose-response curve (HGGX6 [10]): 54

Cc1nn(C)c(COc2ccc(N3CCN(S(=O)(=O)N(C)C)CC3)cc2)c1-c1cccc2c(CCCOc3cccc4ccccc34)c(C(=O)O)n(CCN3CCOCC3)c12
EC50 (log10 M) (DIPGX29 [11]): -4.9
EC50 (log10 M) (DIPGX37 [1]): -4.73
maximal growth inhibition (DIPGX29 [12]): 92.1%
maximal growth inhibition (DIPGX37 [4]): 110%
area under dose-response curve (DIPGX29 [7]): 81.7
area under dose-response curve (DIPGX37 [8]): 79.7
area under dose-response curve (HGGX39 [9]): 0
area under dose-response curve (HGGX6 [10]): 4.05

Nc1ncnc2c1ncn2[C@@H]1O[C@H](C[C@@H](N)CC[C@H](N)C(=O)O)[C@@H](O)[C@H]1O [SINEFUNGIN]
EC50 (log10 M) (DIPGX29 [11]): -5.35
maximal growth inhibition (DIPGX29 [12]): 21.5%
area under dose-response curve (DIPGX29 [7]): 29
area under dose-response curve (DIPGX37 [8]): 0
area under dose-response curve (HGGX39 [9]): 0
area under dose-response curve (HGGX6 [10]): 4.01

Nc1nc(Cl)nc2c1ncn2[C@@H]1O[C@H](CO)[C@@H](O)[C@@H]1F [CLOFARABINE]
EC50 (log10 M) (DIPGX37 [1]): -5.4
EC50 (log10 M) (HGGX6 [3]): -5.65
maximal growth inhibition (DIPGX37 [4]): 28.4%
maximal growth inhibition (HGGX6 [6]): 22.7%
area under dose-response curve (DIPGX29 [7]): 52.4
area under dose-response curve (DIPGX37 [8]): 47
area under dose-response curve (HGGX39 [9]): 44.4
area under dose-response curve (HGGX6 [10]): 40.9

O=c1[nH]c(=O)n([C@H]2C[C@H](O)[C@@H](CO)O2)cc1F [FLOXURIDINE]
EC50 (log10 M) (DIPGX29 [11]): -5.39
maximal growth inhibition (DIPGX29 [12]): 30%
area under dose-response curve (DIPGX29 [7]): 46.2
area under dose-response curve (DIPGX37 [8]): 18.8
area under dose-response curve (HGGX39 [9]): 26.8
area under dose-response curve (HGGX6 [10]): 23.5

Nc1ccn([C@@H]2O[C@H](CO)[C@@H](O)C2(F)F)c(=O)n1 [GEMCITABINE]
EC50 (log10 M) (DIPGX29 [11]): -8.08
maximal growth inhibition (DIPGX29 [12]): 20.3%
area under dose-response curve (DIPGX29 [7]): 81.9
area under dose-response curve (DIPGX37 [8]): 83.9
area under dose-response curve (HGGX39 [9]): 68.9
area under dose-response curve (HGGX6 [10]): 54.2

Cc1cc(C)c(S(=O)(=O)N(Cc2ccc(-c3cccc(S(C)(=O)=O)c3)cc2)Cc2ccc(C(F)(F)F)o2)c(C)c1 [GSK-2033]
EC50 (log10 M) (DIPGX29 [11]): -5.05
maximal growth inhibition (DIPGX29 [12]): 87.3%
area under dose-response curve (DIPGX29 [7]): 89
area under dose-response curve (DIPGX37 [8]): 22.5
area under dose-response curve (HGGX39 [9]): 0
area under dose-response curve (HGGX6 [10]): 30.1

N#CC[C@H](C1CCCC1)n1cc(-c2ncnc3[nH]ccc23)cn1 [RUXOLITINIB]
EC50 (log10 M) (HGGX39 [2]): -5.58
EC50 (log10 M) (HGGX6 [3]): -5.22
maximal growth inhibition (HGGX39 [5]): 27.7%
maximal growth inhibition (HGGX6 [6]): 21.7%
area under dose-response curve (DIPGX29 [7]): 24.4
area under dose-response curve (DIPGX37 [8]): 44.2
area under dose-response curve (HGGX39 [9]): 44.9
area under dose-response curve (HGGX6 [10]): 28.9

Cn1cnc2c(F)c(Nc3ccc(Br)cc3Cl)c(C(=O)NOCCO)cc21 [SELUMETINIB]
EC50 (log10 M) (DIPGX29 [11]): -4.87
EC50 (log10 M) (DIPGX37 [1]): -4.93
maximal growth inhibition (DIPGX29 [12]): 34.5%
maximal growth inhibition (DIPGX37 [4]): 83.2%
area under dose-response curve (DIPGX29 [7]): 52.5
area under dose-response curve (DIPGX37 [8]): 96
area under dose-response curve (HGGX39 [9]): 14.2
area under dose-response curve (HGGX6 [10]): 26.8

C/C=C(\C)C(=O)N[C@@H](c1ccccc1)[C@@H](O)C(=O)O[C@H]1C[C@@]2(O)[C@@H](OC(=O)c3ccccc3)[C@@H]3[C@]4(OC(C)=O)CO[C@@H]4C[C@H](O)[C@@]3(C)C(=O)[C@H](OC(C)=O)C(=C1C)C2(C)C [CEPHALOMANNINE]
EC50 (log10 M) (DIPGX37 [1]): -7.58
EC50 (log10 M) (HGGX39 [2]): -7.73
maximal growth inhibition (DIPGX37 [4]): 28.2%
maximal growth inhibition (HGGX39 [5]): 48.4%
area under dose-response curve (DIPGX29 [7]): 46.7
area under dose-response curve (DIPGX37 [8]): 101
area under dose-response curve (HGGX39 [9]): 180
area under dose-response curve (HGGX6 [10]): 54.1

CCC(COC(=O)c1cc(OC)c(OC)c(OC)c1)(c1ccccc1)N(C)C (centres undefined) [TRIMEBUTINE]
EC50 (log10 M) (DIPGX37 [1]): -5.38
EC50 (log10 M) (HGGX39 [2]): -5.08
EC50 (log10 M) (HGGX6 [3]): -4.87
maximal growth inhibition (DIPGX37 [4]): 25.6%
maximal growth inhibition (HGGX39 [5]): 55.5%
maximal growth inhibition (HGGX6 [6]): 22.6%
area under dose-response curve (DIPGX29 [7]): 28.3
area under dose-response curve (DIPGX37 [8]): 35.6
area under dose-response curve (HGGX39 [9]): 60.1
area under dose-response curve (HGGX6 [10]): 19.8

CC[C@H](C)C(=O)O[C@H]1C[C@@H](C)C=C2C=C[C@H](C)[C@H](CC[C@@H]3C[C@@H](O)CC(=O)O3)[C@H]21 [LOVASTATIN]
EC50 (log10 M) (DIPGX37 [1]): -5.76
EC50 (log10 M) (HGGX39 [2]): -5.37
EC50 (log10 M) (HGGX6 [3]): -5.49
maximal growth inhibition (DIPGX37 [4]): 23.7%
maximal growth inhibition (HGGX39 [5]): 68%
maximal growth inhibition (HGGX6 [6]): 21.5%
area under dose-response curve (DIPGX29 [7]): 29.8
area under dose-response curve (DIPGX37 [8]): 36.7
area under dose-response curve (HGGX39 [9]): 94.8
area under dose-response curve (HGGX6 [10]): 29.1

Cc1sc2c(c1C)C(c1ccc(Cl)cc1)=N[C@@H](CC(=O)Nc1ccc(O)cc1)c1nnc(C)n1-2 [OTX015]
EC50 (log10 M) (DIPGX37 [1]): -6.7
EC50 (log10 M) (HGGX39 [2]): -5.11
maximal growth inhibition (DIPGX37 [4]): 29.5%
maximal growth inhibition (HGGX39 [5]): 50.6%
area under dose-response curve (DIPGX29 [7]): 30.3
area under dose-response curve (DIPGX37 [8]): 80
area under dose-response curve (HGGX39 [9]): 53.1
area under dose-response curve (HGGX6 [10]): 33.7
